Like-named read-outs stand apart in the source and are kept apart here.
Tests used:
SZ95 sebocytes = test: Sentinel Lipid Assay (SLA), desaturation index in SZ95 sebocytes; type: cell-based; conditions: Homo sapiens, 72 h; for EC50: desaturation index, lowest dose used 4.6 nM, read-out: SLA EC50
Method in brief: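 SZ95 human sebocytes on fibronectin-coated plates, dosed 72 h at 37 °C with 1:3 dilutions from 10 μM; lipids extracted with deuterated triglyceride internal standards and quantified by LC-MS/MS (MRM) as 11 sentinel lipids. Desaturation index from elastic-net coefficients, normalized to DMSO; Amax relative to a reference LXR agonist.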

SCD1 = test: Measurement of SCD1 expression in SZ95-SCD1-HiBit cells (HiBiT assay); type: cell-based; conditions: Homo sapiens, 48 h; for EC50: SCD1 protein production, luminescence, initial dilution 1:3 in DMSO, read-out: HiBit EC50
[1] = normalized Amax based on the reference compound Amax of 100%, read-out: SLA Normalized Amax
[2] = SZ95 cells, compared to reference compound, read-out: SLA Amax
[3] = normalized Amax based on the reference compound Amax of 100%, read-out: HiBit Normalized Amax
[4] = SZ95-SCD1-HiBit cells, compared to reference compound, read-out: HiBit Amax

EC50 (SZ95 sebocytes; SZ95 cells) [nM]	EC50 (SCD1; SZ95-SCD1-HiBit cells) [nM]	SMILES	Emax (SZ95 sebocytes; [1]) [%]	Emax (SZ95 sebocytes; [2]) [%]	Emax (SCD1; [3]) [%]	Emax (SCD1; [4]) [%]
≤ 4.6	0.254	CC(C)CS(=O)(=O)c1ccccc1Oc1ccc(-c2noc(CN3C(=O)N(CCN4CCOCC4)C4(CCN(CC5CC5)CC4)C3=O)n2)cc1C(F)(F)F [Compound 27, 8-(cyclopropylmethyl)-3-((3-(4-(2-(isobutylsulfonyl)phenoxy)-3-(trifluoromethyl)phenyl)-1,2,4-oxadiazol-5-yl)methyl)-1-(2-morpholinoethyl)-1,3,8-triazaspiro[4.5]decane-2,4-dione]	114	109	89.1	84.7
≤ 4.6	0.697	CC(C)CS(=O)(=O)c1ccccc1Oc1ccc(-c2noc(CN3C(=O)N(CCN4CCOCC4)C4(CCN(C(=O)CC5CC5)CC4)C3=O)n2)cc1C(F)(F)F [Compound 28, 8-(2-cyclopropylacetyl)-3-((3-(4-(2-(isobutylsulfonyl)phenoxy)-3-(trifluoromethyl)phenyl)-1,2,4-oxadiazol-5-yl)methyl)-1-(2-morpholinoethyl)-1,3,8-triazaspiro[4.5]decane-2,4-dione]	145	139	74.8	71.1
≤ 4.6	0.796	CC(C)CS(=O)(=O)c1ccccc1Oc1ccc(-c2noc(CN3C(=O)N(CCN4CCOCC4)C4(CCN(C(=O)c5cncnc5)CC4)C3=O)n2)cc1C(F)(F)F [Compound 29, 3-((3-(4-(2-(isobutylsulfonyl)phenoxy)-3-(trifluoromethyl)phenyl)-1,2,4-oxadiazol-5-yl)methyl)-1-(2-morpholinoethyl)-8-(pyrimidine-5-carbonyl)-1,3,8-triazaspiro[4.5]decane-2,4-dione]	135	129	87.7	83.4
34.4	1.04	CC(COc1ccc(-c2noc(CN3C(=O)N(CCN4CCOCC4)C4(CCN(C(=O)c5cncnc5)CC4)C3=O)n2)cc1C(F)(F)F)(C(F)(F)F)C(F)(F)F [Compound 30, 1-(2-morpholinoethyl)-8-(pyrimidine-5-carbonyl)-3-((3-(4-(3,3,3-trifluoro-2-methyl-2-(trifluoromethyl)propoxy)-3-(trifluoromethyl)phenyl)-1,2,4-oxadiazol-5-yl)methyl)-1,3,8-triazaspiro[4.5]decane-2,4-dione]	85.5	82.1	89.3	84.9
≤ 4.6	0.44	CC(COc1ccc(-c2noc(CN3C(=O)N(CCC4CCOCC4)C4(CCN(C(=O)c5cncnc5)CC4)C3=O)n2)cc1C(F)(F)F)(C(F)(F)F)C(F)(F)F [Compound 31, 8-(pyrimidine-5-carbonyl)-1-(2-(tetrahydro-2H-pyran-4-yl)ethyl)-3-((3-(4-(3,3,3-trifluoro-2-methyl-2-(trifluoromethyl)propoxy)-3-(trifluoromethyl)phenyl)-1,2,4-oxadiazol-5-yl)methyl)-1,3,8-triazaspiro[4.5]decane-2,4-dione]	100	96.3	82.3	78.3
≤ 4.6	2.42	CC(C)CS(=O)(=O)c1ccccc1Oc1ccc(-c2noc(CN3C(=O)N(CCN4CCOCC4)C4(CCN(C(=O)CCN(C)C)CC4)C3=O)n2)cc1C(F)(F)F [Compound 32, 8-(3-(dimethylamino)propanoyl)-3-((3-(4-(2-(isobutylsulfonyl)phenoxy)-3-(trifluoromethyl)phenyl)-1,2,4-oxadiazol-5-yl)methyl)-1-(2-morpholinoethyl)-1,3,8-triazaspiro[4.5]decane-2,4-dione]	100	96.2	84.9	80.7
≤ 4.6	8.53	CC(C)CS(=O)(=O)c1ccccc1Oc1ccc(-c2noc(CN3C(=O)N(CCN4CCOCC4)C4(CCN(C(=O)C5CCN(C)CC5)CC4)C3=O)n2)cc1C(F)(F)F [Compound 33, 3-((3-(4-(2-(isobutylsulfonyl)phenoxy)-3-(trifluoromethyl)phenyl)-1,2,4-oxadiazol-5-yl)methyl)-8-(1-methylpiperidine-4-carbonyl)-1-(2-morpholinoethyl)-1,3,8-triazaspiro[4.5]decane-2,4-dione]	121	116	113	107
≤ 4.6	0.38	CC(C)CS(=O)(=O)c1ccccc1Oc1ccc(-c2noc(CN3C(=O)N(CCN4CCOCC4)C4(CCN(C(=O)c5ccncn5)CC4)C3=O)n2)cc1C(F)(F)F [Compound 34, 3-((3-(4-(2-(isobutylsulfonyl)phenoxy)-3-(trifluoromethyl)phenyl)-1,2,4-oxadiazol-5-yl)methyl)-1-(2-morpholinoethyl)-8-(pyrimidine-4-carbonyl)-1,3,8-triazaspiro[4.5]decane-2,4-dione]	171	164	85.7	81.5
17.2	0.616	CCCC(=O)N1CCC2(CC1)C(=O)N(Cc1nc(-c3ccc(Oc4ccccc4S(=O)(=O)CC(C)C)c(C(F)(F)F)c3)no1)C(=O)N2CCN1CCOCC1 [Compound 35, 8-butyryl-3-((3-(4-(2-(isobutylsulfonyl)phenoxy)-3-(trifluoromethyl)phenyl)-1,2,4-oxadiazol-5-yl)methyl)-1-(2-morpholinoethyl)-1,3,8-triazaspiro[4.5]decane-2,4-dione]	122	117	73.1	69.5
≤ 4.6	0.119	CC(C)CS(=O)(=O)c1ccccc1Oc1ccc(-c2noc(CN3C(=O)N(CCC4CCOCC4)C4(CCN(C(=O)c5cnccn5)CC4)C3=O)n2)cc1C(F)(F)F [Compound 36, 3-((3-(4-(2-(isobutylsulfonyl)phenoxy)-3-(trifluoromethyl)phenyl)-1,2,4-oxadiazol-5-yl)methyl)-8-(pyrazine-2-carbonyl)-1-(2-(tetrahydro-2H-pyran-4-yl)ethyl)-1,3,8-triazaspiro[4.5]decane-2,4-dione]	131	126	81.5	77.5
≤ 4.6	0.066	CC(C)CS(=O)(=O)c1ccccc1Oc1ccc(-c2noc(CN3C(=O)N(CCC4CCOCC4)C4(CCN(C(=O)c5cncnc5)CC4)C3=O)n2)cc1C(F)(F)F [Compound 37, 3-((3-(4-(2-(isobutylsulfonyl)phenoxy)-3-(trifluoromethyl)phenyl)-1,2,4-oxadiazol-5-yl)methyl)-8-(pyrimidine-5-carbonyl)-1-(2-(tetrahydro-2H-pyran-4-yl)ethyl)-1,3,8-triazaspiro[4.5]decane-2,4-dione]	145	140	91.8	87.3
≤ 4.6	5.26	CC1(C)C(=O)N(Cc2nc(-c3ccc(Oc4ccccc4S(=O)(=O)CC4CCOC4)c(C(F)(F)F)c3)no2)C(=O)N1CCN1CCOCC1 (stereo not drawn) [Compound 38, 5,5-dimethyl-1-(2-morpholinoethyl)-3-((3-(4-(2-(((tetrahydrofuran-3-yl)methyl)sulfonyl)phenoxy)-3-(trifluoromethyl)phenyl)-1,2,4-oxadiazol-5-yl)methyl)imidazolidine-2,4-dione]	160	154	75.8	72.1
≤ 4.6	1.4	CC1(C)C(=O)N(Cc2nc(-c3ccc(Oc4ccccc4S(=O)(=O)C4CC(O)C4)c(C(F)(F)F)c3)no2)C(=O)N1CCN1CCOCC1 (stereo not drawn) [Compound 39, 3-((3-(4-(2-((3-hydroxycyclobutyl)sulfonyl)phenoxy)-3-(trifluoromethyl)phenyl)-1,2,4-oxadiazol-5-yl)methyl)-5,5-dimethyl-1-(2-morpholinoethyl)imidazolidine-2,4-dione]	170	164	93.9	89.3
≤ 4.6	7.08	CC1(C)C(=O)N(Cc2nc(-c3ccc(Oc4ccccc4S(=O)(=O)CC4CCCOC4)c(C(F)(F)F)c3)no2)C(=O)N1CCN1CCOCC1 (stereo not drawn) [Compound 40, 5,5-dimethyl-1-(2-morpholinoethyl)-3-((3-(4-(2-(((tetrahydro-2H-pyran-3-yl)methyl)sulfonyl)phenoxy)-3-(trifluoromethyl)phenyl)-1,2,4-oxadiazol-5-yl)methyl)imidazolidine-2,4-dione]	168	161	74.7	71
≤ 4.6	0.167	CC1(C)C(=O)N(Cc2nc(-c3ccc(Oc4ccccc4C(F)(F)F)c(C(F)(F)F)c3)no2)C(=O)N1CCN1CCOCC1 [Compound 41, 5,5-dimethyl-1-(2-morpholinoethyl)-3-((3-(3-(trifluoromethyl)-4-(2-(trifluoromethyl)phenoxy)phenyl)-1,2,4-oxadiazol-5-yl)methyl)imidazolidine-2,4-dione]	92.2	88.5	93	88.4
≤ 4.6	1.52	CC1(C)C(=O)N(Cc2nc(-c3ccc(OCC(C)(C(F)(F)F)C(F)(F)F)c(C(F)(F)F)c3)no2)C(=O)N1CCN1CCOCC1 [Compound 42, 5,5-dimethyl-1-(2-morpholinoethyl)-3-((3-(4-(3,3,3-trifluoro-2-methyl-2-(trifluoromethyl)propoxy)-3-(trifluoromethyl)phenyl)-1,2,4-oxadiazol-5-yl)methyl)imidazolidine-2,4-dione]	157	150	86.1	81.9

Source: patent US11427586B2, “1,2,4-oxadiazole derivatives as liver X receptor agonists” (NOVARTIS AG, priority 2019, dated 2022)
